Tests used:
monoamine oxidase A = target: T1, monoamine oxidase A (Rattus norvegicus, UniProt P21396); settings: mitochondria from rat brain; cited from earlier work
T1 construct: in preparations of mitochondria from rat brain; from tissue; host or cells: rat brain mitochondria
T1 sequence (P21396 1-526): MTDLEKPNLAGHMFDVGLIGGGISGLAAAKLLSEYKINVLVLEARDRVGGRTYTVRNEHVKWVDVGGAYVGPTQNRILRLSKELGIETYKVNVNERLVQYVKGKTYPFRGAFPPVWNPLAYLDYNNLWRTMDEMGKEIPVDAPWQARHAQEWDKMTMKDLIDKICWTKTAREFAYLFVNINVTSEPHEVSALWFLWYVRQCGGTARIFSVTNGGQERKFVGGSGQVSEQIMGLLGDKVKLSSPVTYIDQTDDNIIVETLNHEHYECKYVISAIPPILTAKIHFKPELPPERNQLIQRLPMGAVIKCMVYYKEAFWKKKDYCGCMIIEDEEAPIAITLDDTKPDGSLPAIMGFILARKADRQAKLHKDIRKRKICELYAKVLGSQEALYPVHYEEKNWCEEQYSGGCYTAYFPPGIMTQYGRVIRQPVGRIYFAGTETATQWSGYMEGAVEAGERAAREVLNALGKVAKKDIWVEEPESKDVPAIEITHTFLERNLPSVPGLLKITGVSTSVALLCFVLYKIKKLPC

immobility time of mice = assay: Porsolt's forced swimming test (FST) in mice; type: in vivo, CF1 mice; settings: 90 mg/kg, p.o.
Procedure: The species H. caprifoliatum, H. carinatum, H. connatum, H. myrianthum, H. piriai, H. polyanthemum and H. cordatum, and three isolated benzopyrans of H. polyanthemum (HP1, HP2, and HP3) were tested for inhibitory activity of monoamine oxidase A and B in preparations of mitochondria from rat brain.
Results are expressed as mean±SEM. * Significant difference compared to the SAL group (water+polysorbate 80, 5%, 1 ml/kg, p.o.) # significant difference compared to POL270 (ANOVA F(7,79)=5.9, p<0.001).
Results are expressed as mean±SEM. *Significant difference compared to the SAL group (water+polysorbate 80, 5%, 1 ml/kg, p.o.) (ANOVA, F(2,29)=15.5, p<0.001).
POL was active in rats (270 mg/kg/day, p.o.) and mice (180, 270 and 360 mg/kg, p.o.). The action of POL in the FST was blocked by administration of SCH 23390 (dopamine D1 antagonist) […], i.p., and sulpiride (D2 dopamine antagonist) 50 mg/kg, ip, (FIG. 1). HP4 was active at a dose of 90 mg/kg, p.o. in mice (FIG. 2).

[1] = target: T2, synaptosomal reuptake of noradrenaline ([3H]-NA) (Rattus norvegicus, UniProt Q9WTR4); assay: synaptosomal reuptake of noradrenaline ([3H]-NA), hypothalamus synaptosomes; type: biochemical; design: in synaptosomes prepared from striatum, hypothalamus and frontal cortex, respectively; from tissue; host or cells: hypothalamus (synaptosomes; membranes); settings: synaptosomes from hypothalamus; HP4 3×10^−4-3×10^−11 g/mL; read-out: IC50, synaptosomal uptake of NA
Description: (§1) The effect of HP4 (3×10^−4-3×10^−11 g/mL) on synaptosomal reuptake of dopamine ([^3H]-DA), noradrenaline ([^3H]-NA) and serotonin ([^3H]-5HT) in synaptosomes prepared from striatum, hypothalamus and frontal cortex, respectively. […] This profile differs from other antidepressants, which inhibit the reuptake of monoamines through competition for binding site on the transporter.

sites of uptake of NA = target: T3, sites of uptake of NA (Rattus norvegicus, UniProt Q9WTR4); assay: binding of [3H]-nisoxetina to sites of uptake of NA, hypothalamus membranes; settings: 3×10^−7-3×10^−11 g/mL
T3 construct: in synaptosomes prepared from striatum, hypothalamus and frontal cortex, respectively; from tissue; host or cells: hypothalamus (synaptosomes; membranes)

G proteins = assay: direct incubation of membranes with HP4, [35S]GTPγS binding; type: biochemical, rats
Procedure: To evaluate the effect of POL on DA, NA, 5-HT and opioids receptors, we used the technique of binding of [^35S] GTPγS stimulated by DA, NA, 5-HT and DAMGO in membranes prepared from striatum, hypothalamus, frontal cortex and thalamus of rats, respectively. […] GTPγS stimulated by DA, NA and 5-HT, while 5 days of treatment with 90 mg/kg, decreases this binding. […] This time profile of action coincides with the modern theories that the antidepressant effect is related to neuroadaptation processes.
GTPγS to its site. […] These changes can occur through other regulatory mechanisms or are related to HP4 metabolites produced after administration in vivo of POL. […] GTPγS stimulated by agonists after different treatment regimens with saline and POL.

sites of uptake of DA = target: T4, sites of uptake of DA (Rattus norvegicus, UniProt P23977); assay: binding of [3H]-mazindol to sites of uptake of DA, striatum membranes; settings: 3×10^−7-3×10^−11 g/mL
T4 construct: in synaptosomes prepared from striatum, hypothalamus and frontal cortex, respectively; from tissue; host or cells: striatum (synaptosomes; membranes)

[2] = target: T5, synaptosomal reuptake of dopamine ([3H]-DA) (Rattus norvegicus, UniProt P23977); assay: synaptosomal reuptake of dopamine ([3H]-DA), striatum synaptosomes; type: biochemical; design: in synaptosomes prepared from striatum, hypothalamus and frontal cortex, respectively; from tissue; host or cells: striatum (synaptosomes; membranes)
Description: as §1

[3] = target: T6, synaptosomal reuptake of serotonin ([3H]-5HT) (Rattus norvegicus, UniProt P31652); assay: synaptosomal reuptake of serotonin ([3H]-5HT), frontal cortex synaptosomes; type: biochemical; design: in synaptosomes prepared from striatum, hypothalamus and frontal cortex, respectively; from tissue; host or cells: frontal cortex (synaptosomes; membranes); settings: synaptosomes from frontal cortex; HP4 3×10^−4-3×10^−11 g/mL; read-out: IC50, synaptosomal uptake of 5-HT
Description: as §1

sites of uptake of 5-HT = target: T7, sites of uptake of 5-HT (Rattus norvegicus, UniProt P31652); assay: binding of [3H]-citalopram to sites of uptake of 5-HT, frontal cortex membranes; settings: 3×10^−7-3×10^−11 g/mL
T7 construct: in synaptosomes prepared from striatum, hypothalamus and frontal cortex, respectively; from tissue; host or cells: frontal cortex (synaptosomes; membranes)

corticosterone = assay: serum and cortical corticosterone in mice subjected to forced swimming (radioimmunoassay); type: in vivo; settings: three days of treatment, POL 360 mg/kg p.o., imipramine 20 mg/kg, bupropion 30 mg/kg; for serum levels of corticosterone: forced swimming
Procedure: Data are presented as mean±SEM. *p<0.01 compared to respective group without swimming; #p<0.01 compared to SAL with swimming. Legend: (A) X axis—corticosterone levels (μg/100 mL plasma); Blank values: no swimming; values hatch: with swim, (B) X axis—cortical Corticosterone (pg/100 mg tissue).
We evaluated the action of POL (360 mg/kg, p.o.) on serum and cortical levels of corticosterone in mice subjected or not to stress caused by forced swimming. The concentration of corticosterone present in the samples was measured by radioimmunoassay.

[4] = target: T6, synaptosomal reuptake of serotonin ([3H]-5HT); settings: in vitro; cited from earlier work
[5] = test system: synatosomal reuptake of GABA; settings: in vitro; cited from earlier work
[6] = test system: synatosomal reuptake of glutamate; settings: in vitro; cited from earlier work
[7] = target: T5, synaptosomal reuptake of dopamine ([3H]-DA); settings: in vitro; cited from earlier work
[8] = target: T2, synaptosomal reuptake of noradrenaline ([3H]-NA); settings: in vitro; cited from earlier work

T5 sequence (P23977 whole entry): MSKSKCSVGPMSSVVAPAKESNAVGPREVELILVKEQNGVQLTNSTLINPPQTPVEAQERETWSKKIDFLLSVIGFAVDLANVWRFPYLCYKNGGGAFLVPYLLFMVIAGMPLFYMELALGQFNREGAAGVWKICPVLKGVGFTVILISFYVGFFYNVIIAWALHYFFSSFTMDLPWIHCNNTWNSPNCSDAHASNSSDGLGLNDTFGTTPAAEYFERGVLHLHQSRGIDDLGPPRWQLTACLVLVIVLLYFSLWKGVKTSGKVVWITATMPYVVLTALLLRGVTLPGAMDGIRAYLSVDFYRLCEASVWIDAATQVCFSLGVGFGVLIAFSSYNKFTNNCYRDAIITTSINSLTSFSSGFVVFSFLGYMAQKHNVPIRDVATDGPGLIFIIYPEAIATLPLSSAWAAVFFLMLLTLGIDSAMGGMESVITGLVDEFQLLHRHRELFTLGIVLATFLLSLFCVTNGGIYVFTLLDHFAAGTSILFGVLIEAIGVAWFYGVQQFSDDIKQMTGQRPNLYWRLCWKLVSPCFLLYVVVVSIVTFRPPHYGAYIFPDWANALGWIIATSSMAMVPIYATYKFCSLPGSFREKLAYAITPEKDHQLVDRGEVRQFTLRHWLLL
T2 sequence (Q9WTR4 1-597): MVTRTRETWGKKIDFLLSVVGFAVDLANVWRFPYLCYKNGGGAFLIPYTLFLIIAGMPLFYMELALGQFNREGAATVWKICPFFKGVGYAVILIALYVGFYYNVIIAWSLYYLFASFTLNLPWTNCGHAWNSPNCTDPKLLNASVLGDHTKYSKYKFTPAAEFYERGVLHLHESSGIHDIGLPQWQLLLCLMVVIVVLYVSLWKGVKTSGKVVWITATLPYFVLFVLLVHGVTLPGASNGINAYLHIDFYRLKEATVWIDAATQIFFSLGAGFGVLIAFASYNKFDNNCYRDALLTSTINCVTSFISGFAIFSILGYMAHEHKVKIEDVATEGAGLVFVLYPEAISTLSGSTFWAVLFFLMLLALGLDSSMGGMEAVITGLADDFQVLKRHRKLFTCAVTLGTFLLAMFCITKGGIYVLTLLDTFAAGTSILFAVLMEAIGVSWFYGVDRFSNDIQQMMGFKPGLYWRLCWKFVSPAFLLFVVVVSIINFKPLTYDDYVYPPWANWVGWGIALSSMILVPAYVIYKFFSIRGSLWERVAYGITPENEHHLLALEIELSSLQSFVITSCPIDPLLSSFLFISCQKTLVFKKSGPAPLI
T6 sequence (P31652 whole entry): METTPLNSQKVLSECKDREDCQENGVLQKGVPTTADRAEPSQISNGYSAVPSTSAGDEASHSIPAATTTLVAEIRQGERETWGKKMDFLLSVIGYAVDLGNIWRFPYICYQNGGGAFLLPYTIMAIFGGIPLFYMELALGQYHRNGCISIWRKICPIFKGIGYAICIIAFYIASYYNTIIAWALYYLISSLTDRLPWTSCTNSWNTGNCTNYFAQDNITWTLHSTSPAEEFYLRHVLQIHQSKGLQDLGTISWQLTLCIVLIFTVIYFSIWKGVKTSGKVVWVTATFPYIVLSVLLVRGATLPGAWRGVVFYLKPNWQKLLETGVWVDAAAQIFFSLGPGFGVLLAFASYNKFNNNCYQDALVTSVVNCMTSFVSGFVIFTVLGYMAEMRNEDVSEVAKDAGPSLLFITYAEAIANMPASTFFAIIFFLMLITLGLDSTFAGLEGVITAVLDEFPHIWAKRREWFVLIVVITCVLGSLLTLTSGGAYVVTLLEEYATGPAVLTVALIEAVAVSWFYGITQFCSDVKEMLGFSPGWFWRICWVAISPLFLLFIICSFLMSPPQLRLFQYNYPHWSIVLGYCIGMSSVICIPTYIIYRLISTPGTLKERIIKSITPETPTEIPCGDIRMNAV
T3 sequence (Q9WTR4 1-597): as the sequence (Q9WTR4 1-597) above
T4 sequence (P23977 whole entry): as the sequence (P23977 whole entry) above
T7 sequence (P31652 whole entry): as the sequence (P31652 whole entry) above

Compound: COc1cc2c(c(O)c1C(=O)C(C)C)C=CC(C)(C)O2 [HP3, 5-hydroxy-6-isobutyryl-7-methoxy-2,2-dimethyl-benzopyran]
- IC50 (monoamine oxidase A): 22200 nM

Compound: CC(C)C(=O)C1=C(O)C(C)(C)C(O)=C(Cc2c(O)c3c(c(C(=O)C(C)C)c2O)OC(C)(C)C=C3)C1=O [HP4, uliginosin B]
- activity in forced swimming test (immobility time of mice): active
- IC50 [1]: 280 ± 48 nM
- effect on binding of [3H]-nisoxetina to sites of uptake of NA (sites of uptake of NA): did not affect the binding
- effect on binding of [35S]GTPγS to its site (G proteins): did not alter the binding
- effect on binding of [3H]-mazindol to sites of uptake of DA (sites of uptake of DA): did not affect the binding
- IC50 for dopamine relative to IC50 for NA and 5-HT (reuptake selectivity) ([2]; in vitro synaptosomal reuptake): almost three times smaller
- IC50 ([2]; synaptosomes from striatum, HP4 3×10^−4-3×10^−11 g/mL, read-out: IC50, synaptosomal uptake of DA): 90 ± 38 nM
- IC50 [3]: 252 ± 13 nM
- effect on binding of [3H]-citalopram to sites of uptake of 5-HT (sites of uptake of 5-HT): did not affect the binding

Compound: CC(NC(C)(C)C)C(=O)c1cccc(Cl)c1 (stereo not shown) [bupropion]
- level of cortical corticosterone raised by forced swimming (corticosterone): alters both serum and cortical levels
- serum levels of corticosterone (corticosterone): alters both serum and cortical levels

Compound: CN(C)CCCN1c2ccccc2CCc2ccccc21 [imipramine]
- level of cortical corticosterone raised by forced swimming (corticosterone): alters both serum and cortical levels
- serum levels of corticosterone (corticosterone): alters both serum and cortical levels

Compound: hyperforin
- inhibition of synaptosomal reuptake of serotonin [4]: inhibit
- inhibition of synaptosomal reuptake of GABA [5]: inhibits
- inhibition of synaptosomal reuptake of glutamate [6]: inhibits
- inhibition of synaptosomal reuptake of dopamine [7]: inhibit
- inhibition of synaptosomal reuptake of norepinephrine [8]: inhibit

— patent US20110313034A1, “NEUROACTIVE PLANT EXTRACT FROM HYPERICUM POLYANTHEMUM” (UNIVERSIDADE FEDERAL DO RIO GRANDE DO SUL, priority 2009, published 2011)
